Assay results taken from ChEMBL document CHEMBL1201862, “PubChem BioAssay data set” (2004).
“And” between values parts separate entries of the source, which are not always exact repeats. Equal entries are not always repeated. The source made the active and inactive calls. Non-standard residues stand in square brackets, D forms with d. Residues, ends and D or L forms follow the SMILES beside them. dChg = N[C@@H](C(=O)O)C1CCCCC1; NMeA = CN[C@@H](C)C(=O)O

Columns and labels:
Protein skinhead-1 = target: T1, Protein skinhead-1 (Caenorhabditis elegans, UniProt P34707); assay type: functional
T1 sequence (P34707 whole entry): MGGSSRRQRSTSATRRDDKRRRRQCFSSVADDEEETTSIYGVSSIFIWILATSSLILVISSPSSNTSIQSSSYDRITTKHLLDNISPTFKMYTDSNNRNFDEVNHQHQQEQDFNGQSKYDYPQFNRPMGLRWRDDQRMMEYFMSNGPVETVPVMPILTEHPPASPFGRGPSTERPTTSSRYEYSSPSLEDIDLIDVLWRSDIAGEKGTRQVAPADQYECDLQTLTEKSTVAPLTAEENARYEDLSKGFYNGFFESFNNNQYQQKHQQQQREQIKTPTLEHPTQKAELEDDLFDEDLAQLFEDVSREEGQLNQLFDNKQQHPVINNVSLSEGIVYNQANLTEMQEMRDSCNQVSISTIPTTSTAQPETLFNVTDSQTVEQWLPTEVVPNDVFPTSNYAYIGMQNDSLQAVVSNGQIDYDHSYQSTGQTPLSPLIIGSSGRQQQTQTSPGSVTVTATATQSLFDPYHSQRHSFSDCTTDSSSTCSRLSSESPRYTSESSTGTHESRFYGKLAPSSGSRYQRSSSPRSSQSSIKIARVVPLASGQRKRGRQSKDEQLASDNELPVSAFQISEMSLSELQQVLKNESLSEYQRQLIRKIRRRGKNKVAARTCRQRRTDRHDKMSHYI

Coagulation factor XII = target: T2, Coagulation factor XII (Homo sapiens, UniProt P00748); experiment: Factor XIIa Dose Response Confirmation from Single Well HTS. [Related pubchem assays (depositor defined):AID701]; assay type: functional
T2 sequence (P00748 whole entry): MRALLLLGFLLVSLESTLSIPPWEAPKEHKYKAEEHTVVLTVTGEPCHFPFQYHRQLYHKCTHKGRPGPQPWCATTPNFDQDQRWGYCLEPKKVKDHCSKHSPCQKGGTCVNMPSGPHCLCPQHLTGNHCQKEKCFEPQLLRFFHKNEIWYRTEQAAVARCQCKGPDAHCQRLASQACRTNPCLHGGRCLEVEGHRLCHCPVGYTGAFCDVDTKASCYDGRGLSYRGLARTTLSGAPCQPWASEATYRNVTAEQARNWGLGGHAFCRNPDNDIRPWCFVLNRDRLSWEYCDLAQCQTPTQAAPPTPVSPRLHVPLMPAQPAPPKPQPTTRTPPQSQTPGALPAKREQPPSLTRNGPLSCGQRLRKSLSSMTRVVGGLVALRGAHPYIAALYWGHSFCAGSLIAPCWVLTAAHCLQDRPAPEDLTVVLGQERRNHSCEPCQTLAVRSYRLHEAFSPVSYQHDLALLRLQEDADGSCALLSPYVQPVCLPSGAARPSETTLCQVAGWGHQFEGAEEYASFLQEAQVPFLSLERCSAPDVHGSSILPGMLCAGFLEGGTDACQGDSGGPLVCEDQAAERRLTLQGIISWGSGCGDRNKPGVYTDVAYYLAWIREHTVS

Prothrombin = Prothrombin (Homo sapiens, UniProt P00734); experiment: Thrombin 1536 HTS Dose Response Confirmation. [Related pubchem assays: 1046 (Thrombin 1536 HTS; hits were confirmed in this assay)]; assay type: functional
Hexokinase HKDC1 = target: T3, Hexokinase HKDC1 (Homo sapiens, UniProt Q2TB90); experiment: HKDC1 hexokinase activators, dose response, biochemical, W721R variant (AID 504730); assay type: functional
T3 sequence (Q2TB90 whole entry): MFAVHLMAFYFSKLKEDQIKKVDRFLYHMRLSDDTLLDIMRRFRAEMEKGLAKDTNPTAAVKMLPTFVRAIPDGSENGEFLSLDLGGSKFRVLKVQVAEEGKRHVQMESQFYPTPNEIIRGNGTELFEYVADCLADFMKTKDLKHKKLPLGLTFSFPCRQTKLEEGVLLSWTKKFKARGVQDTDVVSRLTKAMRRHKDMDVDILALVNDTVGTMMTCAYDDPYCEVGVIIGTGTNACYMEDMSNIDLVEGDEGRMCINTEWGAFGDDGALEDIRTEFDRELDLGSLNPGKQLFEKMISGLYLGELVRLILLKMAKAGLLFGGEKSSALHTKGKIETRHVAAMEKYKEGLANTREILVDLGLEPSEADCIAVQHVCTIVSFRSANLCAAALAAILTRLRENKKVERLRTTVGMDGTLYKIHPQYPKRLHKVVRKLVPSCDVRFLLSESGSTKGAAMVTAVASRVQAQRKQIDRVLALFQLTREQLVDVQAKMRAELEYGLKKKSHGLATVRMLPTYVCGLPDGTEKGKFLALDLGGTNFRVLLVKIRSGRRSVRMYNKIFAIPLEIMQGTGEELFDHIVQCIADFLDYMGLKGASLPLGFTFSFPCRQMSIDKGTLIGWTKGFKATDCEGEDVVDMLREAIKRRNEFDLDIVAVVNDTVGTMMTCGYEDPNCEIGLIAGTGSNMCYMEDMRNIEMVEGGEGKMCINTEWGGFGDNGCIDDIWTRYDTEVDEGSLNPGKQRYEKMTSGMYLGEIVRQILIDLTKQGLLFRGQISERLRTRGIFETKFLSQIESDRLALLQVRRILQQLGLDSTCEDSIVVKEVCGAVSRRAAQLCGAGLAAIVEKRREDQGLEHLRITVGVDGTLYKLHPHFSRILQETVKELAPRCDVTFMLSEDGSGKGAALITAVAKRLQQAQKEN

Hexokinase-1 = Hexokinase-1 (Homo sapiens, UniProt P19367); experiment: hexokinase 1 activators, dose response, selectivity assay for HKDC1 activator project, biochemical (AID 504762); assay type: functional
Nonstructural protein 1 = Nonstructural protein 1 (Influenza A virus, UniProt Q194T2); assay type: functional, Influenza A virus (A/California/07/2009(H1N1))
Nonstructural protein 1, sequence (Q194T2 whole entry, the tested form may be a part): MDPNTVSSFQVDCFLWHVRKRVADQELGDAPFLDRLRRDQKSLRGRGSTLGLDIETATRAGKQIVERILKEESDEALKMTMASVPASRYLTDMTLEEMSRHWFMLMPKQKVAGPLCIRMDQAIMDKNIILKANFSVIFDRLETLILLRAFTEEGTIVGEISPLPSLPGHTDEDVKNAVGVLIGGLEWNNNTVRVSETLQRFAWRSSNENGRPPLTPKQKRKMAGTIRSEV

[1] = target: T4, Runt-related transcription factor 1/Core-binding factor subunit beta (Homo sapiens, UniProt Q01196+Q13951); experiment: inhibitors of RUNX1 Runt–CBFb-SMMHC binding, primary screen, biochemical, FRET, Cerulean-Runt, Venus-CBFb-SMMHC, uHTS (AID 1434); assay type: protein assay;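 also: partner is the CBFb-SMMHC leukemia fusion protein rather than wild-type CBFb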
T4 sequence (Q01196 whole entry, the tested form may be a part): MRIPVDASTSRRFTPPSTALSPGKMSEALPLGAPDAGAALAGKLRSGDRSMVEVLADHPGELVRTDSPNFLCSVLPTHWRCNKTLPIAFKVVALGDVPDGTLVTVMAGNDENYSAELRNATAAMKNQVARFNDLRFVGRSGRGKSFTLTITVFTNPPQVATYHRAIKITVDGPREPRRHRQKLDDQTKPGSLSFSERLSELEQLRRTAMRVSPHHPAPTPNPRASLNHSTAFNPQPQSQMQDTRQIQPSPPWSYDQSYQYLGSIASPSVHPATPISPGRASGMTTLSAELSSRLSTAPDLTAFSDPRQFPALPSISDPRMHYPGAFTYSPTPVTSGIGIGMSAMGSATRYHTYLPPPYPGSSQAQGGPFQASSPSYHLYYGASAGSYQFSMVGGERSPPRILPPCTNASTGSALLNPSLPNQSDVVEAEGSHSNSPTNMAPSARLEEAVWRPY
T4 sequence (Q13951 whole entry, the tested form may be a part): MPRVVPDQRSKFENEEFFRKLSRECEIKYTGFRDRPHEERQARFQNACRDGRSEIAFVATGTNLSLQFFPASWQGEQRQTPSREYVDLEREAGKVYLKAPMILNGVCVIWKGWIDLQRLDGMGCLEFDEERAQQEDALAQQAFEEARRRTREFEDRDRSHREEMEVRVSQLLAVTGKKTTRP

[2] = target: T4, Runt-related transcription factor 1/Core-binding factor subunit beta; experiment: inhibitors of RUNX1 Runt–CBFb-SMMHC binding, biochemical, TR-FRET (AID 1438); assay type: protein assay
SUMO-activating enzyme = SUMO-activating enzyme (Homo sapiens, UniProt Q9UBT2); experiment: SUMOylation inhibitor hit validation, confirmation, SUMOylation inhibitor project, biochemical, AlphaScreen (AID 2018); assay type: functional
SUMO-activating enzyme, sequence (Q9UBE0 whole entry): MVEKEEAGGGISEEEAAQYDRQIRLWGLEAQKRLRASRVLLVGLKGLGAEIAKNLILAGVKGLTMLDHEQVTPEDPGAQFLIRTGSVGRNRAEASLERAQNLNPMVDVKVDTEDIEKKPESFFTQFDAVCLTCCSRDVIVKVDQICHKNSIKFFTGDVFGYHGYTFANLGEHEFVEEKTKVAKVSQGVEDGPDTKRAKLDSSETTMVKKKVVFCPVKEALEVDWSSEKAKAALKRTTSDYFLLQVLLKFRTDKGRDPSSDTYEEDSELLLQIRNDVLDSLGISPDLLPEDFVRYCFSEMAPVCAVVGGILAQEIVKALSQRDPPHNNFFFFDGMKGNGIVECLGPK
SUMO-activating enzyme, sequence (Q9UBT2 whole entry): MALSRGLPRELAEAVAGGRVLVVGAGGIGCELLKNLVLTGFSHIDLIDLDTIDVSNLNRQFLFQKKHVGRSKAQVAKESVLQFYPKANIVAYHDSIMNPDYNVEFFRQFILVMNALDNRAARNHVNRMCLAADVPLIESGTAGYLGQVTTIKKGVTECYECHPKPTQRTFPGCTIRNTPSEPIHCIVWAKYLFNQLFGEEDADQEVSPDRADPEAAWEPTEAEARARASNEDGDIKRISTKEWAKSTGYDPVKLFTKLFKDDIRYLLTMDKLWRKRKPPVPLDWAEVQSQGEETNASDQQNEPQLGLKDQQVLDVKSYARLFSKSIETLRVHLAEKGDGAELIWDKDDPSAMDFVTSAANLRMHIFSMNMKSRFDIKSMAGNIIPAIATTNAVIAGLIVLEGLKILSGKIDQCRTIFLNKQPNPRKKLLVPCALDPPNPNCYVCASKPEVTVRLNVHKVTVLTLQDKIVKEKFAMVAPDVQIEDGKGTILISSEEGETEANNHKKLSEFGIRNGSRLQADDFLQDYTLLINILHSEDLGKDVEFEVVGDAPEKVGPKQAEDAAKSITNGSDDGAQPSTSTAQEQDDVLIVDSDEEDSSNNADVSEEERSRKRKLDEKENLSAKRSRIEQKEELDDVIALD

[3] = target: Delta-type opioid receptor (Homo sapiens, UniProt P41143); experiment: SAR Analysis of Antagonists of the DOR Receptor using an Image-Based Assay - Set 2. [Related pubchem assays (depositor defined):AID1777, AID1785, AID1786, AID1966, AID2133, AID2136, AID2284, AID2285, AID2357]; assay type: functional
Delta-type opioid receptor, sequence (P41143 whole entry): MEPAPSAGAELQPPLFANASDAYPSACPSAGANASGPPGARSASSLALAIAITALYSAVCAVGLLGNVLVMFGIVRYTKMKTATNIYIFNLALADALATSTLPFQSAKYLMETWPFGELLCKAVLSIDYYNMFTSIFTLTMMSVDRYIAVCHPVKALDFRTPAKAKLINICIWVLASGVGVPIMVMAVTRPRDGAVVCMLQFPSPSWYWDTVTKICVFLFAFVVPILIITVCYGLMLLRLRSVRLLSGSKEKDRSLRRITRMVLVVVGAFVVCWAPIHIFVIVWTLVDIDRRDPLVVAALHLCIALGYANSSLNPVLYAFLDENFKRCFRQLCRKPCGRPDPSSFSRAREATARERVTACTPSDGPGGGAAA

[4] = target: T5, Kappa-type opioid receptor (Homo sapiens, UniProt P41145); experiment: SAR analysis of small molecule agonists of the kappa opioid receptor via a luminescent beta-arrestin assay - Set 2. [Related pubchem assays (depositor defined):AID1777, AID1785, AID1786, AID1966, AID2133, AID2136, AID2284, AID449737]; assay type: functional
T5 sequence (P41145 whole entry): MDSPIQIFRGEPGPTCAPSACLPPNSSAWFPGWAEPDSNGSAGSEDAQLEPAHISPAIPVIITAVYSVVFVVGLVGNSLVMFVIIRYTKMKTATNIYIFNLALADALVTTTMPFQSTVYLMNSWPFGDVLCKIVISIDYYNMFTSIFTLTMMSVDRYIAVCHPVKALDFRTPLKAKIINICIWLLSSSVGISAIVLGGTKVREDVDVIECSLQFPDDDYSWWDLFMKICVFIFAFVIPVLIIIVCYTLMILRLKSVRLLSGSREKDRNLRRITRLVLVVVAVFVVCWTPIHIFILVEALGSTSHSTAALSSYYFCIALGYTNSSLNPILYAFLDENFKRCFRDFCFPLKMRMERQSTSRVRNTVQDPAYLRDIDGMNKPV

[5] = target: T5, Kappa-type opioid receptor; experiment: SAR analysis of Antagonists of the Kappa Opioid Receptor (KOR) using an Image-Based Assay - Set 2. [Related pubchem assays (depositor defined):AID1777, AID1785, AID1786, AID1966, AID2133, AID2136, AID2284, AID2285, AID2348]; assay type: functional
[6] = target: T6, Sphingosine 1-phosphate receptor 4 (Homo sapiens, UniProt O95977); experiment: Late-stage fluorescence dose response cell-based assay to identify agonists of the Sphingosine 1-Phosphate Receptor 4 (S1P4): purchased compounds EC50. [Related pubchem assays (depositor defined):AID1509, AID1523, AID1563, AID1686, AID1701, AID1801]; assay type: functional
T6 sequence (O95977 whole entry): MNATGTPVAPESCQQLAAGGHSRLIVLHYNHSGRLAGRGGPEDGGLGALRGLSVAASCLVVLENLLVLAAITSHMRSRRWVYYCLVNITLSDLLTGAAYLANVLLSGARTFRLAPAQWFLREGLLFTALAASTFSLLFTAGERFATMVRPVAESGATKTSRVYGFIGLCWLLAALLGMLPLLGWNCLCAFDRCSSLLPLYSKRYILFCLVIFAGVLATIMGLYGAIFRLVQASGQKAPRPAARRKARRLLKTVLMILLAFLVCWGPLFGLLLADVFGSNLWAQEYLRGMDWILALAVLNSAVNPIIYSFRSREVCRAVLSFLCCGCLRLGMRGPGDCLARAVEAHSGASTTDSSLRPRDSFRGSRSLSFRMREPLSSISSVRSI

[7] = target: T6, Sphingosine 1-phosphate receptor 4; experiment: S1P4 receptor agonists, human, late-stage follow-up, cell-based, fluorescence, synthesized compounds (AID 463107); assay type: functional
[8] = target: Intestinal-type alkaline phosphatase (Homo sapiens, UniProt P09923); experiment: human intestinal alkaline phosphatase activators, dose response, biochemical, luminescence, uHTS hits (AID 463120); assay type: functional
Intestinal-type alkaline phosphatase, sequence (P09923 whole entry): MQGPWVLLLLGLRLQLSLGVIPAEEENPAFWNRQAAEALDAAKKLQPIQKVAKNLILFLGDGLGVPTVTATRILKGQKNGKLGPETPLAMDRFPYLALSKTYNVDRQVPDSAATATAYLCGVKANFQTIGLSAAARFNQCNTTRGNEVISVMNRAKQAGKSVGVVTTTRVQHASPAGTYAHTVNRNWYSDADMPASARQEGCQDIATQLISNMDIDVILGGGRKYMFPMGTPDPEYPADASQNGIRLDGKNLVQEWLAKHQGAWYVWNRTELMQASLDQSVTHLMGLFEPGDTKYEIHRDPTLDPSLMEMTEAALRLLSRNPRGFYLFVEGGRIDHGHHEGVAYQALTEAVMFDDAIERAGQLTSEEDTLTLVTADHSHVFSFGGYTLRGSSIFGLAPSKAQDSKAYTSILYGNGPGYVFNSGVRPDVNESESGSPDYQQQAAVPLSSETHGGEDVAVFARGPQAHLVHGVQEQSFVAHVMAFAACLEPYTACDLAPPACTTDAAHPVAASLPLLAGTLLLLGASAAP

[9] = target: T7, E3 ubiquitin-protein ligase XIAP (Homo sapiens, UniProt P98170); experiment: SAR analysis of Antagonists of IAP-family anti-apoptotic proteins. [Related pubchem assays (depositor defined):AID1018, AID1449, AID1513, AID1514, AID1638]
T7 sequence (P98170 whole entry, the tested form may be a part): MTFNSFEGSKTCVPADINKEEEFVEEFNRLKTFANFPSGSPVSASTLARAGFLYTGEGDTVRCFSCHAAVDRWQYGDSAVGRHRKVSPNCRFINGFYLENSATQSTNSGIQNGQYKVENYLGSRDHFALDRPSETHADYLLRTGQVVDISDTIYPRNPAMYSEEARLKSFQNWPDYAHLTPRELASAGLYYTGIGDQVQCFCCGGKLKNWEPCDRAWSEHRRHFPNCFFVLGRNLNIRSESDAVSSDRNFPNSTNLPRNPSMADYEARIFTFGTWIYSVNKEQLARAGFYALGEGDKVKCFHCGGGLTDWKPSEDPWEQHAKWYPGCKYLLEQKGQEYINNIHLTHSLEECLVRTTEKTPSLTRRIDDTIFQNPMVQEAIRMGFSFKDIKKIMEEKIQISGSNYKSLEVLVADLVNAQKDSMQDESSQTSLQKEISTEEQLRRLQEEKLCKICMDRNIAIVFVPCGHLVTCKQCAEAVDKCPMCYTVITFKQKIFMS

[10] = target: T7, E3 ubiquitin-protein ligase XIAP; experiment: SAR analysis of Antagonists of XIAP-Bir3 domain of IAP-family anti-apoptotic proteins. [Related pubchem assays (depositor defined):AID1018, AID1449, AID1513, AID1514, AID1638]
[11] = target: DNA damage-inducible transcript 3 protein (Mus musculus, UniProt P35639); assay type: functional, Cricetulus griseus
DNA damage-inducible transcript 3 protein, sequence (P35639 whole entry): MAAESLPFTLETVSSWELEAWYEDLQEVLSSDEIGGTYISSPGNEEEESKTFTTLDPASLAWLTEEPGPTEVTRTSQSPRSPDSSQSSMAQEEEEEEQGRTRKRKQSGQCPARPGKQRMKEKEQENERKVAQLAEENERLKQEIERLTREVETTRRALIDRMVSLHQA

Aspartyl aminopeptidase = Aspartyl aminopeptidase (Plasmodium falciparum 3D7, UniProt Q8I2J3)
Aspartyl aminopeptidase, sequence (Q8I2J3 whole entry): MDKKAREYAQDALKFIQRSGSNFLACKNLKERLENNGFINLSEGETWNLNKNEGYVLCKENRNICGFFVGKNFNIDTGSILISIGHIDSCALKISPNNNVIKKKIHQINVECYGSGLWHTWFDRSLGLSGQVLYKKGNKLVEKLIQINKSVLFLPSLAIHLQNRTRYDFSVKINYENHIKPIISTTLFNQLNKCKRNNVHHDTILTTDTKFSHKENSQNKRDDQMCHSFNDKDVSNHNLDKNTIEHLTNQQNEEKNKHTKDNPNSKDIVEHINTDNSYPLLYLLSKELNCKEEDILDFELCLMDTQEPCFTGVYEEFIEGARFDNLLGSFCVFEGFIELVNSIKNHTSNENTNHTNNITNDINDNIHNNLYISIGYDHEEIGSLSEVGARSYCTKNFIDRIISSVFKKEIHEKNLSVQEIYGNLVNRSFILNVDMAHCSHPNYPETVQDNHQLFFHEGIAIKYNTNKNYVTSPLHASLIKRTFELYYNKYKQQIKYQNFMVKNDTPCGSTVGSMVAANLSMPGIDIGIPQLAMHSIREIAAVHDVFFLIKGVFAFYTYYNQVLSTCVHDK

X-box-binding protein 1 = target: T8, X-box-binding protein 1 (Homo sapiens, UniProt P17861); assay type: functional, Cricetulus griseus;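 also: confirmatory dose-response counter-screen serving a CHOP assay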
T8 sequence (P17861 whole entry): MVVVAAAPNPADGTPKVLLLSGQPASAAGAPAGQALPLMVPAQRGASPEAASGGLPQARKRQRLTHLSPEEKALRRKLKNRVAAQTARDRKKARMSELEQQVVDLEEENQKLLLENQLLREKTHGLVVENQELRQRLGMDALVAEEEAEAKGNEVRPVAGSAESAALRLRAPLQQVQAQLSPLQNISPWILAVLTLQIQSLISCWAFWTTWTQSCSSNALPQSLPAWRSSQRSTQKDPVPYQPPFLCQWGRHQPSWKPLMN

[12] = target: T7, E3 ubiquitin-protein ligase XIAP; experiment: XIAP antagonists, biochemical, IAP family, fluorescence polarization (AID 1018); assay type: functional
Procathepsin L = Procathepsin L (Homo sapiens, UniProt P07711)
Procathepsin L, sequence (P07711 whole entry): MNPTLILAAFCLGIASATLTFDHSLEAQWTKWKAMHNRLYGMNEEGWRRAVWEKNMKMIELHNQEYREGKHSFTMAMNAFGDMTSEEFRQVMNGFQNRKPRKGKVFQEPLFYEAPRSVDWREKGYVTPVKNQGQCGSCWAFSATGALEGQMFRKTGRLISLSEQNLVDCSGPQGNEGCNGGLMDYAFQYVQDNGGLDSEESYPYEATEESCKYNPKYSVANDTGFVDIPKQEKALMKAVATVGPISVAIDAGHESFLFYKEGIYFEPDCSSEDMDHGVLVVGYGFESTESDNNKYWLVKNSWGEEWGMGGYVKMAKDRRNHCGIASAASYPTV

[13] = HEK293T cell cytotoxicity, dose response, cytotoxicity control for HIV Vif inhibitor project, cherry-picks (AID 652208); assay type: functional, cell-based
[14] = target: T7, E3 ubiquitin-protein ligase XIAP; experiment: Counter Screen using XIAP-Bir3 for Chemical Antagonists of Bir1/2 domains of IAP-family anti-apoptotic proteins. [Related pubchem assays (depositor defined):AID1018, AID1449, AID1514, AID1638, AID1749, AID1750, AID488957, AID488963]

With `Cc1ccc(C(=O)n2nc(-c3cccnc3)nc2N)cc1` the IC50 (Protein skinhead-1) was > 100 µM (inactive), the IC50 (Coagulation factor XII) was 0.796 µM (active) and the IC50 (Prothrombin) was 0.543 µM (active).

In the case of `S=C(NN=C(c1ccccc1)c1ccccn1)N(Cc1ccccn1)Cc1ccccn1`, the EC50 (Hexokinase HKDC1) is reported as 1.78 µM (active), the EC50 (Hexokinase-1) is reported as > 80 µM (inactive) and the IC50 (Nonstructural protein 1) is reported as 2.59 µM (active).

In the case of `N=c1c(S(=O)(=O)c2ccccc2)cc2c(=O)n3ccccc3nc2n1Cc1ccco1`, the IC50 [1] is reported as 3.38 µM (active), the IC50 [2] is reported as 57.5 µM (inactive) and the IC50 (SUMO-activating enzyme) is reported as 6.01 µM (active).

In the case of `CC[C@](C)(C(=O)Nc1ccc(Br)cc1)N(Cc1ccco1)C(=O)c1ccccn1`, the IC50 [3] is reported as > 32 µM (inactive), the EC50 [4] is reported as 0.0802 µM (active) and the IC50 [5] is reported as > 32 µM (inactive).

For `Cc1ccc(OCCOc2ccc(Br)cc2)c([N+](=O)[O-])n1`, the EC50 [6] was 20.7 µM (inactive) and 23.3 µM (inactive) and the EC50 [7] was > 50 µM (inactive).

With `O=C(COc1ccc(Br)cc1)NCCCn1ccnc1` the EC50 [8] was > 100 µM (inactive).

With `CC1CCCc2ccccc21.CN[C@@H](C)C(=O)N[C@@H](C(=O)N1CCC[C@H]1C(N)=O)C1CCCCC1` (H-[NMeA]-[dChg]-Pro-NH2) the IC50 [9] was > 100 µM (inactive) and the IC50 [10] was > 100 µM (inactive).

In the case of `Cc1cc(NC(=O)NC2(C(F)(F)F)Oc3ccc(Cl)cc3O2)no1` (centres undefined), the “Absolute IC50 (CHOP)” value [11] is reported as 10 µM, the IC50 (Aspartyl aminopeptidase) is reported as 1.69 µM (active) and the “Absolute IC50 (XBP1)” value (X-box-binding protein 1) is reported as under 10 µM. For the same compound, the IC50 [12] was > 100 µM (not active), the IC50 (Procathepsin L) was > 59.6 µM (not active) and the AC50 [13] was 38 µM (active). The IC50 [14] was > 100 µM (inactive).
